Our source for the remaining activity values is paper PMC8286840, “Identifying SARS-CoV-2 antiviral compounds by screening for small molecule inhibitors of Nsp3 papain-like protease” (Biochemical Journal, 2021).

Experiment [1] deals with T1, SARS-CoV-2 PLpro (nsp3 1564–1878) (Severe acute respiratory syndrome coronavirus 2, UniProt P0DTD1). The experiment can be described thus: biochemical. The arrangement: FRET-quenched peptide (Pro3) cleavage by PLpro, 10 min pre-incubation, slope over 20 min, normalised to no-compound control. The note with it: read-out: % of control remaining.
The target of experiment [2] is T1, SARS-CoV-2 PLpro (nsp3 1564–1878). The experiment can be described thus: biochemical. The note with it: read-out: % of control remaining. The arrangement: FRET-quenched peptide (Pro3) cleavage by PLpro, 10 min pre-incubation, slope over 20 min, normalised to no-compound control. This is another data set of the same source.

Where a name gives a salt, the structure may show the parent alone. Read-outs that look alike come from different tables or passages of the source. *1 amine or outer side, *2 acyl side, *3 side chain or, on linkers, in order; H or OH if unused. Where a SMILES comes first, the peptide text is derived from it. Bridges are numbered along the chain shown (N, C = ends). Roman numbers before positions name the chains, in order. [ ]: non-standard residue; d: D form. Actinocin(9to1) = Cc1c2oc3c(C)ccc(C(=O)[*:1])c3nc-2c(C(=O)[*:2])c(N)c1=O; NMeV = CN[C@H](C(=O)O)C(C)C; Sar = CNCC(=O)O

As for `CC(=O)N[C@@H](C)C(=O)O` [Ac-Ala-OH], in experiment [1] (Well no.=8696, low concentration screen), the remaining activity at 1.25 µM is 96.5%. The remaining activity at 3.75 µM in experiment [2] (Well no.=8696, high concentration screen) stood at 96.8%.
For `COc1ccc(-c2cc(=O)c3c(O)cc(O)cc3o2)cc1` [Acacetine], the remaining activity at 1.25 µM in experiment [1] (Well no.=3398, low concentration screen) was 94.2%. The remaining activity at 3.75 µM in experiment [2] (Well no.=3398, high concentration screen) was determined as 92.9%.
As for `C[C@H]1O[C@H](O[C@H]2[C@H](O)[C@@H](O)[C@@H](O[C@H]3[C@H](O)[C@@H](O)C(O)O[C@@H]3CO)O[C@@H]2CO)[C@H](O)[C@@H](O)[C@@H]1N[C@H]1C=C(CO)[C@@H](O)[C@H](O)[C@H]1O` (some centres unmarked) [Acarbose], in experiment [1] (Well no.=5149, low concentration screen), the remaining activity at 1.25 µM came to 101%. Moreover, in experiment [2] (Well no.=5149, high concentration screen), the remaining activity at 3.75 µM worked out at 104%.
`CCCC(=O)Nc1ccc(OCC(O)CNC(C)C)c(C(C)=O)c1` (centres unmarked) [Acebutolol (hydrochloride)]: the remaining activity at 1.25 µM in experiment [1] (Well no.=6747, low concentration screen) is 101%. Further, the remaining activity at 3.75 µM in experiment [2] (Well no.=6747, high concentration screen) was determined as 97.2%.
As to `O=C(O)COC(=O)Cc1ccccc1Nc1c(Cl)cccc1Cl` [Aceclofenac], the remaining activity at 1.25 µM in experiment [1] (Well no.=2071, low concentration screen) came out at 103%. In addition, the remaining activity at 3.75 µM in experiment [2] (Well no.=2071, high concentration screen) was determined as 102%.
As for `Cn1c(=O)c2c(ncn2CC(=O)O)n(C)c1=O` [Acefylline], the remaining activity at 1.25 µM stood at 102% in experiment [1] (Well no.=8081, low concentration screen) and 105% in experiment [1] (Well no.=8491, low concentration screen). For the same compound, the remaining activity at 3.75 µM in experiment [2] (Well no.=8081, high concentration screen) was found to be 100%; in experiment [2] (Well no.=8491, high concentration screen), 103%.
`CC(=O)N[C@@H](CCC(N)=O)C(=O)O` [Aceglutamide]: in experiment [1] (Well no.=7402, low concentration screen), the remaining activity at 1.25 µM turned out to be 106%. Moreover, the remaining activity at 3.75 µM in experiment [2] (Well no.=7402, high concentration screen) came out at 102%.
As to `COc1ccc2c(c1)c(CC(=O)OCC(=O)O)c(C)n2C(=O)c1ccc(Cl)cc1` [Acemetacin], the remaining activity at 1.25 µM in experiment [1] (Well no.=2037, low concentration screen) is 99.2%. Further, the remaining activity at 3.75 µM in experiment [2] (Well no.=2037, high concentration screen) amounted to 97.7%.
As to `CC1=CC(=O)NS(=O)(=O)O1` [Acesulfame Potassium], the remaining activity at 1.25 µM in experiment [1] (Well no.=5318, low concentration screen) turned out to be 94.9%. In experiment [2] (Well no.=5318, high concentration screen), the remaining activity at 3.75 µM came to 93.1%.
As for `CC(N)=O` [Acetamide], the remaining activity at 1.25 µM in experiment [1] (Well no.=7, low concentration screen) was found to be 101%. Further, the remaining activity at 3.75 µM in experiment [2] (Well no.=7, high concentration screen) turned out to be 101%.
Consider `CC(=O)Nc1nnc(S(N)(=O)=O)s1` [Acetazolamide], for which the remaining activity at 1.25 µM in experiment [1] (Well no.=163, low concentration screen) amounted to 101%. For the same compound, in experiment [2] (Well no.=163, high concentration screen), the remaining activity at 3.75 µM turned out to be 103%.
As to `CC(=O)c1ccc(S(=O)(=O)NC(=O)NC2CCCCC2)cc1` [Acetohexamide], the remaining activity at 1.25 µM in experiment [1] (Well no.=18, low concentration screen) stood at 93.4%. Further, the remaining activity at 3.75 µM in experiment [2] (Well no.=18, high concentration screen) is 98.9%.
`CC(=O)OC(C)C[N+](C)(C)C` (stereo not drawn) [Acetyl-beta-methylcholine chloride]: the remaining activity at 1.25 µM in experiment [1] (Well no.=107, low concentration screen) is 98.7%. Moreover, the remaining activity at 3.75 µM in experiment [2] (Well no.=107, high concentration screen) amounted to 98.4%.
Take `CC(=O)N[C@@H](CSC/C=C(\C)CC/C=C(\C)CCC=C(C)C)C(=O)O` [Acetyl-farnesyl-cysteine]: the remaining activity at 1.25 µM in experiment [1] (Well no.=4342, low concentration screen) stood at 102%. Further, the remaining activity at 3.75 µM in experiment [2] (Well no.=4342, high concentration screen) amounted to 102%.
For the compound `CC(=O)OCC[N+](C)(C)C` [Acetylcholine], the remaining activity at 1.25 µM in experiment [1] (Well no.=1550, low concentration screen) was 96.7%. Moreover, the remaining activity at 3.75 µM in experiment [2] (Well no.=1550, high concentration screen) stood at 98.7%.
Take `CC(=O)N[C@@H](CS)C(=O)O` [Acetylcysteine]: the remaining activity at 1.25 µM in experiment [1] (Well no.=6161, low concentration screen) is 102%; in experiment [1] (Well no.=8266, low concentration screen), 99.9%. Besides, the remaining activity at 3.75 µM in experiment [2] (Well no.=6161, high concentration screen) worked out at 103%; in experiment [2] (Well no.=8266, high concentration screen), 101%.
In the case of `CC(=O)Oc1ccccc1C(=O)O` [Acetylsalicylic acid], the remaining activity at 1.25 µM in experiment [1] (Well no.=161, low concentration screen) was determined as 101%; in experiment [1] (Well no.=2067, low concentration screen), 102%. The remaining activity at 3.75 µM stood at 97.3% in experiment [2] (Well no.=161, high concentration screen) and 103% in experiment [2] (Well no.=2067, high concentration screen).
For `CC(=O)SCC[N+](C)(C)C` [Acetylthiocholine chloride], in experiment [1] (Well no.=257, low concentration screen), the remaining activity at 1.25 µM was 97.5%. In experiment [2] (Well no.=257, high concentration screen), the remaining activity at 3.75 µM came to 99.3%.
`Cc1cnc(C(=O)O)c[n+]1[O-]` [Acipimox]: the remaining activity at 1.25 µM in experiment [1] (Well no.=2069, low concentration screen) was found to be 102%. Also, the remaining activity at 3.75 µM in experiment [2] (Well no.=2069, high concentration screen) stood at 104%.
Consider `COc1cc(C)c(/C=C/C(C)=C/C=C/C(C)=C/C(=O)O)c(C)c1C` [Acitretin], for which, in experiment [1] (Well no.=1817, low concentration screen), the remaining activity at 1.25 µM was found to be 96.4%. Also, the remaining activity at 3.75 µM in experiment [2] (Well no.=1817, high concentration screen) was found to be 96.3%.
As to `N[C@H](C(=O)O)[C@@H]1CC(Cl)=NO1` [Acivicin], the remaining activity at 1.25 µM in experiment [1] (Well no.=3483, low concentration screen) came out at 96.9%. For the same compound, the remaining activity at 3.75 µM in experiment [2] (Well no.=3483, high concentration screen) turned out to be 97.4%.
On to `CC[C@@]1(O)C[C@H](O[C@H]2C[C@H](N(C)C)[C@H](O[C@H]3C[C@H](O)[C@H](O[C@H]4CCC(=O)[C@H](C)O4)[C@H](C)O3)[C@H](C)O2)c2c(cc3c(c2O)C(=O)c2c(O)cccc2C3=O)[C@H]1C(=O)OC` [Aclarubicin], for which the remaining activity at 1.25 µM in experiment [1] (Well no.=1573, low concentration screen) came out at 101%. Besides, the remaining activity at 3.75 µM in experiment [2] (Well no.=1573, high concentration screen) stood at 96.4%.
Turning to `O=C(O[C@H]1C[N+]2(CCCOc3ccccc3)CCC1CC2)C(O)(c1cccs1)c1cccs1` [Aclidinium (Bromide)], in experiment [1] (Well no.=7336, low concentration screen), the remaining activity at 1.25 µM turned out to be 98%. Moreover, the remaining activity at 3.75 µM in experiment [2] (Well no.=7336, high concentration screen) was found to be 101%.
Consider `O=C(O[C@H]1C[N+]2(CCCOc3ccccc3)CCC1CC2)C(O)(c1cccs1)c1cccs1` [Aclidinium Bromide], for which, in experiment [1] (Well no.=5358, low concentration screen), the remaining activity at 1.25 µM came out at 100%. Besides, in experiment [2] (Well no.=5358, high concentration screen), the remaining activity at 3.75 µM came to 97.4%.
On to `CCN1C[C@]2(COC)[C@H](O)C[C@H](OC)[C@@]34[C@@H]5C[C@@]6(O)[C@H](OC(=O)c7ccccc7)[C@@H]5[C@@](OC(C)=O)([C@@H]([C@H](OC)[C@H]23)[C@@H]14)[C@@H](O)[C@@H]6OC` [Aconitine], for which, in experiment [1], the remaining activity at 1.25 µM is 96%. Further, the remaining activity at 3.75 µM in experiment [2] turned out to be 98.5%.
In the case of `CC(=O)Nc1ccc(CC(=O)O)cc1` [Actarit], the remaining activity at 1.25 µM in experiment [1] (Well no.=1907, low concentration screen) is 96.1%. Also, the remaining activity at 3.75 µM in experiment [2] (Well no.=1907, high concentration screen) was 95.2%.
Turning to `Cc1c2oc3c(C)ccc(C(=O)N[C@@H]4C(=O)N[C@H](C(C)C)C(=O)N5CCC[C@H]5C(=O)N(C)CC(=O)N(C)[C@@H](C(C)C)C(=O)O[C@@H]4C)c3nc-2c(C(=O)N[C@@H]2C(=O)N[C@H](C(C)C)C(=O)N3CCC[C@H]3C(=O)N(C)CC(=O)N(C)[C@@H](C(C)C)C(=O)O[C@@H]2C)c(N)c1=O` [Actinomycin D] (I: T[dV]P[Sar][NMeV] / II: T[dV]P[Sar][NMeV]; ester I:1-I:C, II:1-II:C; linker I:N-II:N via Actinocin(9to1)), the remaining activity at 1.25 µM in experiment [1] (Well no.=3075, low concentration screen) came out at 103%. Also, in experiment [2] (Well no.=3075, high concentration screen), the remaining activity at 3.75 µM was found to be 103%.
`CCCCC[C@H](CC(=O)NO)C(=O)N[C@H](C(=O)N1CCC[C@H]1CO)C(C)C` [Actinonin]: the remaining activity at 1.25 µM in experiment [1] (Well no.=21, low concentration screen) is 97.8%. Further, the remaining activity at 3.75 µM in experiment [2] (Well no.=21, high concentration screen) was found to be 97.8%.
On to `Nc1nc2c(ncn2COCCO)c(=O)[nH]1` [Acycloguanosine], for which the remaining activity at 1.25 µM in experiment [1] (Well no.=2073, low concentration screen) was 103%. Further, the remaining activity at 3.75 µM in experiment [2] (Well no.=2073, high concentration screen) came to 106%.
As for `Nc1nc2c(ncn2COCCO)c(=O)[nH]1` [Acyclovir], the remaining activity at 1.25 µM in experiment [1] (Well no.=159, low concentration screen) was determined as 104%; in experiment [1] (Well no.=8000, low concentration screen) it was 92.6%. Also, the remaining activity at 3.75 µM in experiment [2] (Well no.=159, high concentration screen) was determined as 103%; in experiment [2] (Well no.=8000, high concentration screen), 89.5%.
